These results are taken from US20210100737A1, “TRANSDERMAL DELIVERY OF DRONABINOL” (Starton Therapeutics, Inc., priority 2019, published 2021).

Structures are written as SMILES.

For data set [1] the following is noted: dosage of 7 mg/m^2; cited from earlier work.
The conditions of data set [2]: cited from earlier work.
The conditions of data set [3]: in 96 hrs through human cadaver skin; U.S. Pat. No. 8,449,908; cited from earlier work.
Data set [4] can be described thus: Delivery of THC through human cadaver skin (U.S. Pat. No. 8,449,908). Particulars: calculated from the cumulative amount in 96 hrs. It counts as in vitro ADME. The protocol:
U.S. Pat. No. 8,449,908 provides delivery of the cumulative amount of 10000 ng THC in 96 hrs through the human cadaver skin. This amount represents the flux of 60 ng/cm^2/hr. The patch area can be calculated using following equation: […]
In order to deliver a therapeutic dosage of 5 mg/day of delta-9-THC, a transdermal formulation would need to cover at least […] surface area of the patient's skin. This is an impractical patch size for any transdermal drug delivery system (TDDS).

Consider `CCCCCc1cc(O)c2c(c1)OC(C)(C)[C@@H]1CCC(C)=C[C@@H]21` (relative stereo) [dronabinol, (6aR-trans)-6a,7,8,10a-tetrahydro-6,6,9-trimethyl-3-pentyl-6H-dibenzo[b,d]pyran-1-ol], for which the adverse effects entry in data set [1] was “not induced”. Moreover, in data set [2] (after oral administration, first pass hepatic metabolism), the “share of the administered dose that reaches systemic circulation” value is 10%-20%. Besides, in data set [2] (in vivo), the Alpha half-life result is “about 4 hours”. Besides, the “cumulative amount of THC delivered” value in data set [3] is recorded as 10000 ng. Further, in data set [4], the flux is listed as 60 ng/cm^2/hr.
